This is an account of results in patent US4605670A, “Method for percutaneously administering metoclopramide” (priority 1984, dated 1986).

Where a name gives a salt, the structure may show the parent alone.

This series is classed as in vitro ADME, male albino rats. The text has this: Rat full thickness skins were used in the diffusion cell method of Michaels, AlChE Journal, 21 [5], 985-996, (1975). The rat skin was mounted in the diffusion cell in a vertical position between the upstream and the downstream compartments; the exposed area of the skin approximated 4.15 cm^2.
The skin was excised from the shaved abdominal site of male albino rats weighing 250~300 g, and washed with normal saline solution after the subcutaneous fat was carefully removed with scissors.
An MCP solution of known concentration was added to the upper compartment of the cell, which was exposed to the epithelial side of the skin and a normal saline solution was placed in the lower compartment.
The penetration rate was studied in a thermostated bath at 30° C. At appropriate intervals samples were withdrawn from the lower compartment and subsequently analyzed for MCP concentration by standard analytical methods. This regimen was used in Examples 1 to 10.
Unless otherwise indicated, in all of the examples, the active agent was MCP.HCl, the MCP.HCl flux is given in terms of ug/cm^2 /8hrs, 25 volume percent of the adjuvant with respect to the adjuvant plus solvent volume was used in combination with 2.5 weight percent of active agent based on the weight of the adjuvant plus solvent; otherwise, all percents are volume percents based on adjuvant, solvent or adjuvant plus solvent volume, depending on the system.
Compositions were typically prepared by merely mixing the adjuvant and solvent together, then mixing the MCP.HCl in the mixture and then, if used, mixing the diol therein. The order of mixing is not important.

`CCN(CC)CCNC(=O)c1cc(Cl)c(N)cc1OC` [MCP HCl, metoclopramide.HCl, reference compound]: the “MCP HCl flux with increasing MCP HCl concentration” value was “Flux increases linearly with increasing drug concentration”.
As to Hydroxy ethyl cellulose, the “MCP.HCl Flux” value worked out at 1296 ug/cm^2 /8 hrs.
The same measure, in the same setting: with Hydroxy propyl cellulose the figure was 843 ug/cm^2 /8 hrs.
